# Source: ChEMBL document CHEMBL1125639, “Synthesis and resolution of (+-)-7-chloro-8-hydroxy-1-(3'-iodophenyl)-3-methyl-2,3,4,5-tetrahydro- 1H-3- benzazepine (TISCH): a high affinity and selective iodinated ligand for CNS D1 dopamine receptor” (J Med Chem, 1991)
# Species: Rattus norvegicus
# Assay type: functional, Striatum, Membrane
# Description: Inhibition constant of compound on R-(+)-125[I]-8 radioligand binding to rat striatal membranes
structure (smiles),measurement,value
NCCc1c[nH]c2ccc(O)cc12 [SEROTONIN],Ki,> 5 µM
